In BindingDB's records for patent US12247013 (Antabio, 2025):

Biological target: Elastase (Pseudomonas aeruginosa (strain ATCC 15692 / DSM 22644 / CIP 104116 / JCM 14847 / LMG 12228 / 1C / PRS 101 / PAO1), UniProt P14756)
Assay: Fluorometric Assay
Description: Method: 10 to 140 ng/ml purified LasB is incubated with 250 μM Abz-Ala-Gly-Leu-Ala-p-Nitro-Benzyl-Amide in 50 mM Tris-HCl pH 7.4, 2.5 mM CaCl2), 0.01% of Triton X100 at 37° C. LasB activity (corresponding to fluorescence emission induced by substrate hydrolysis) is measured over 30 min at 37° C. with a fluorescence plate reader such as the Perkin Elmer Envision or similar. Different range of inhibitor concentrations are routinely assessed depending of inhibitor potency from 0.0016 to 200 μM (2-fold dilutions series) in order to determine IC50.

Elastase, sequence (P14756 whole entry): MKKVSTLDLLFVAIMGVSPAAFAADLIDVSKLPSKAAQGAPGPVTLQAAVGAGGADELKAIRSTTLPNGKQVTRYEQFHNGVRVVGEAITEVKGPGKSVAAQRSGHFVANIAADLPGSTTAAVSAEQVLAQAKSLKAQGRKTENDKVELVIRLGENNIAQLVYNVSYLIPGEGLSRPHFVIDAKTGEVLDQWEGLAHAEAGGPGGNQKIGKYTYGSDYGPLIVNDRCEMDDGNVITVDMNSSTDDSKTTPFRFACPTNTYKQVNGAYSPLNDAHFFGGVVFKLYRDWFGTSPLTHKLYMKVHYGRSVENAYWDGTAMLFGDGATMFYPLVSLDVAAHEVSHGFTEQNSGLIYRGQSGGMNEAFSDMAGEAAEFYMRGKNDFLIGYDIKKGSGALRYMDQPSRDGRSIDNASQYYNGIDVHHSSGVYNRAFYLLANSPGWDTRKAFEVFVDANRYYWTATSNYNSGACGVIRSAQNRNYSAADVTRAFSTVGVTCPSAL

Compound: COc1cc2sc(CNC(=O)C3(CC(=O)O)Cc4cc(F)c(F)cc4C3)nc2cc1C(=O)N1CCN(C)CC1 [US12247013, Example 34]
- Ki: < 50 nM
